The text below walks through data of patent US20240400555A1 (Initial Therapeutics, Inc., priority 2023, published 2024).

pIC50: −log10 of the molar value. Where only a bound is given, the exact number is not on record here.

The experiment has as its system MV-4-11 cells. The experiment is described as follows: Cell Viability Assay in MV-4-11 Cells. It is filed as cell-based. The note with it: Homo sapiens, MV4-11, 72 h, MV-4-11 cells, 72 h, Cell-Titer Glo; read-out: IC50. Put shortly: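 Luminescent ATP read-out (CellTiter-Glo) after 72 h compound treatment of MV-4-11 leukaemia cells (7,000 per well, IMDM plus 10% FBS). Values expressed relative to DMSO control and derived by four-parameter non-linear regression.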
A word on the pIC50: it is the negative decadic logarithm of the IC50, by convention in mol/L. Take `COCCn1cc(-c2ccc(C(=O)N(c3nccc4scc(C)c34)[C@@H]3CCCNC3)cn2)nn1` [Example 638, (R)-6-(1-(2-methoxyethyl)-1H-1,2,3-triazol-4-yl)-N-(3-methylthieno[3,2-c]pyridin-4-yl)-N-(piperidin-3-yl)nicotinamide]: the pIC50 is 7.33.

For `Cc1cc(C#CC(C)(C)O)cc2ccnc(N(C(=O)c3ccc(-n4nnc5cccnc54)cc3F)[C@@H]3CCCNC3)c12` [Example 587, (R)-4-(3H-[1,2,3]triazolo[4,5-b]pyridin-3-yl)-2-fluoro-N-(6-(3-hydroxy-3-methylbut-1-yn-1-yl)-8-methylisoquinolin-1-yl)-N-(piperidin-3-yl)benzamide], the negative-log IC50 (pIC50) was 7.85.

On to `COc1ccc(-c2cc3c(N(C(=O)c4ccc(-n5nnc6cccnc65)cc4F)[C@@H]4CCCNC4)nccc3s2)cc1` [Example 378, 2-fluoro-N-[2-(4-methoxyphenyl)thieno[3,2-c]pyridin-4-yl]-N-[(3R)-3-piperidyl]-4-(triazolo[4,5-b]pyridin-3-yl)benzamide], for which the pIC50 was 6.72.

For the compound `Cn1cc(/C=C/c2ccnc(N(C(=O)c3ccc(-n4nnc5cccnc54)cc3F)[C@@H]3CCCNC3)c2)cn1` [Example 430, 2-fluoro-N-[4-[(E)-2-(1-methylpyrazol-4-yl)vinyl]-2-pyridyl]-N-[(3R)-3-piperidyl]-4-(triazolo[4,5-b]pyridin-3-yl)benzamide], the pIC50 is 6.19.

In the case of `O=C(c1ccc(-n2nnc3cccnc32)cc1F)N(c1nccc2sc(-c3ccnnc3)cc12)[C@@H]1CCCNC1` [Example 455, 2-fluoro-N-[(3R)-3-piperidyl]-N-(2-pyridazin-4-ylthieno[3,2-c]pyridin-4-yl)-4-(triazolo[4,5-b]pyridin-3-yl)benzamide], the negative-log IC50 (pIC50) was 6.19.

Turning to `Cc1cc(Cl)cc2ccnc(N(C(=O)c3ccc(-c4cn(C)nn4)cc3)[C@@H]3CCCNC3)c12` [Example 802, (R)—N-(6-chloro-8-methylisoquinolin-1-yl)-4-(1-methyl-1H-1,2,3-triazol-4-yl)-N-(piperidin-3-yl)benzamide], the pIC50 is 7.42.

Regarding `CN(C)c1nccc(-c2cc3c(N(C(=O)c4ccc(-n5nnc6cccnc65)cc4F)[C@@H]4CCCNC4)nccc3s2)n1` [Example 458, N-[2-[2-(dimethylamino)pyrimidin-4-yl]thieno[3,2-c]pyridin-4-yl]-2-fluoro-N-[(3R)-3-piperidyl]-4-(triazolo[4,5-b]pyridin-3-yl)benzamide], the pIC50 is 6.41.

`Cc1cccc2ccnc(N(C(=O)c3ccc(Nc4nccc(N)n4)cc3F)[C@@H]3CCCNC3)c12` [Example 848, (R)-4-((4-aminopyrimidin-2-yl)amino)-2-fluoro-N-(8-methylisoquinolin-1-yl)-N-(piperidin-3-yl)benzamide]: the pIC50 was 6.59.

Regarding `Cn1cc(-c2ccc(C(=O)N(c3nccc4cc(-c5ccccn5)ccc34)[C@@H]3CCCNC3)c(F)c2)nn1` [Example 581, (R)-2-fluoro-4-(1-methyl-1H-1,2,3-triazol-4-yl)-N-(piperidin-3-yl)-N-(6-(pyridin-2-yl)isoquinolin-1-yl)benzamide], the negative logarithm of the IC50 (pIC50) is 6.47.

Turning to `Cc1nnc(-c2ccc(C(=O)N(c3nccc4sc(C#CCCC(N)=O)cc34)[C@@H]3CCCNC3)c(F)c2)s1` [Example 817, N-[2-(5-amino-5-oxo-pent-1-ynyl)thieno[3,2-c]pyridin-4-yl]-2-fluoro-4-(5-methyl-1,3,4-thiadiazol-2-yl)-N-[(3R)-3-piperidyl]benzamide], the negative logarithm of the IC50 (pIC50) was 5.44.

With `O=C(c1ccc(-n2nnc3cccnc32)cc1F)N(c1nccc2sc(-c3cccc(CO)c3)cc12)[C@@H]1CCCNC1` [Example 424, 2-fluoro-N-[2-[3-(hydroxymethyl)phenyl]thieno[3,2-c]pyridin-4-yl]-N-[(3R)-3-piperidyl]-4-(triazolo[4,5-b]pyridin-3-yl)benzamide], the pIC50 is 6.96.

Take `Cc1cccc2ccnc(N(C(=O)c3ccc(Nc4nccc(N5CCC(=O)C5)n4)cc3F)[C@@H]3CCCNC3)c12` [Example 947, (R)-2-fluoro-N-(8-methylisoquinolin-1-yl)-4-((4-(3-oxopyrrolidin-1-yl)pyrimidin-2-yl)amino)-N-(piperidin-3-yl)benzamide]: the pIC50 is 7.46.

Turning to `Cn1cc(-c2ccc(C(=O)N(c3nccc4sc(-c5ccc(C(=O)NCCO)cc5)cc34)[C@@H]3CCCNC3)c(F)c2)nn1` [Example 524], the pIC50 was less than 5.00.

In the case of `N#Cc1cc(-c2cc3c(N(C(=O)c4ccc(-n5nnc6cccnc65)cc4F)[C@@H]4CCCNC4)nccc3s2)ccn1` [Example 386, N-[2-(2-cyano-4-pyridyl)thieno[3,2-c]pyridin-4-yl]-2-fluoro-N-[(3R)-3-piperidyl]-4-(triazolo[4,5-b]pyridin-3-yl)benzamide], the negative logarithm of the IC50 (pIC50) was 6.48.

`Cc1nccc(N)c1-c1ccc(C(=O)N(c2nccc3cccc(C)c23)[C@@H]2CCCNC2)c(F)c1` [Example 361, (R)-4-(4-amino-2-methylpyridin-3-yl)-2-fluoro-N-(8-methylisoquinolin-1-yl)-N-(piperidin-3-yl)benzamide]: the negative-log IC50 (pIC50) was less than 5.00.

Turning to `C#Cc1csc2ccnc(N(C(=O)c3ccc(-c4cn(C)nn4)cc3F)[C@@H]3CCCNC3)c12` [Example 674, (R)—N-(3-ethynylthieno[3,2-c]pyridin-4-yl)-2-fluoro-4-(1-methyl-1H-1,2,3-triazol-4-yl)-N-(piperidin-3-yl)benzamide], the pIC50 is 7.00.

On to `CCOc1cc(C)c2c(N(C(=O)c3ccc(-c4nnc(C)s4)cn3)[C@@H]3CCCNC3)nccc2c1` [Example 865, N-(6-ethoxy-8-methyl-1-isoquinolyl)-5-(5-methyl-1,3,4-thiadiazol-2-yl)-N-[(3R)-3-piperidyl]pyridine-2-carboxamide], for which the pIC50 is 6.82.

In the case of `[2H]C([2H])([2H])c1nnc(-c2ccc(C(=O)N(c3nccc4cc(C)cc(C)c34)[C@@H]3CCCNC3)c(F)c2)s1` [Example 906, N-(6,8-dimethyl-1-isoquinolyl)-2-fluoro-N-[(3R)-3-piperidyl]-4-[5-(trideuteriomethyl)-1,3,4-thiadiazol-2-yl]benzamide], the negative-log IC50 (pIC50) was 7.32.

For the compound `COc1ccnc(Nc2ccc(C(=O)N(c3nccc4cccc(C)c34)[C@@H]3CCCNC3)c(F)c2)n1` [Example 951, 2-fluoro-4-[(4-methoxypyrimidin-2-yl)amino]-N-(8-methylisoquinolin-1-yl)-N-[(3R)-piperidin-3-yl]benzamide], the negative logarithm of the IC50 (pIC50) was 7.00.

For the compound `O=C(c1ccc(Nc2ncccn2)cc1)N(c1ncccc1Cl)[C@@H]1CCCNC1` [Example 925, (R)—N-(3-chloropyridin-2-yl)-N-(piperidin-3-yl)-4-(pyrimidin-2-ylamino)benzamide], the pIC50 was 7.49.

On to `Cc1nsc(-c2ccc(C(=O)N(c3nccc4scc(C)c34)[C@@H]3CCCNC3)c(F)c2)n1` [Example 779, (R)-2-fluoro-4-(3-methyl-1,2,4-thiadiazol-5-yl)-N-(3-methylthieno[3,2-c]pyridin-4-yl)-N-(piperidin-3-yl)benzamide], for which the negative-log IC50 (pIC50) is 5.89.

As for `O=C(c1ccc(Nc2ncccn2)cc1F)N(c1nccc2cc(-c3cccnc3)ccc12)[C@@H]1CCCNC1` [Example 397, (R)-2-fluoro-N-(piperidin-3-yl)-N-(6-(pyridin-3-yl)isoquinolin-1-yl)-4-(pyrimidin-2-ylamino)benzamide], the pIC50 is 6.34.

As to `O=C(c1ccc(-n2nnc3cccnc32)cc1F)N(c1nccc2sc(-c3cccc(-c4ncco4)c3)cc12)[C@@H]1CCCNC1` [Example 449, 2-fluoro-N-[2-(3-oxazol-2-ylphenyl)thieno [3,2-c]pyridin-4-yl]-N-[(3R)-3-piperidyl]-4-(triazolo [4,5-b]pyridin-3-yl) benzamide], the pIC50 is 6.03.

`Cc1nnc(-c2ccc(C(=O)N(c3nccc4c(Cl)cn(C)c34)[C@@H]3CCCNC3)c(F)c2)s1` [Example 664, (R)—N-(3-chloro-1-methyl-1H-pyrrolo[2,3-c]pyridin-7-yl)-2-fluoro-4-(5-methyl-1,3,4-thiadiazol-2-yl)-N-(piperidin-3-yl)benzamide]: the pIC50 was 6.70.

With `Cc1nnc(-c2ccc(C(=O)N(c3nccc4c(Cl)ccc(C)c34)[C@@H]3CCCNC3)cn2)s1` [Example 898, N-(5-chloro-8-methyl-1-isoquinolyl)-6-(5-methyl-1,3,4-thiadiazol-2-yl)-N-[(3R)-3-piperidyl] pyridine-3-carboxamide], the pIC50 was 6.92.

On to `Cc1nnc(-c2ccc(C(=O)N(c3nccc4cccc(C)c34)[C@@H]3CCCNC3)cc2)s1` [Example 792, (R)-4-(5-methyl-1,3,4-thiadiazol-2-yl)-N-(8-methylisoquinolin-1-yl)-N-(piperidin-3-yl) benzamide], for which the pIC50 was 6.80.

As to `Cc1c(-c2ccc(C(=O)N(c3nccc4sc(-c5ccc(C(N)=O)cc5)cc34)[C@@H]3CCCNC3)c(F)c2)nnn1C` [Example 819, N-[2-(4-carbamoylphenyl)thieno[3,2-c]yridine-4-yl]-4-(1,5-dimethyltriazol-4-yl)-2-fluoro-N-[(3R)-3-piperidyl]benzamide], the negative-log IC50 (pIC50) is 6.00.

With `Cc1cccc2ccnc(N(C(=O)c3cccc(C#CCCCCO)c3)[C@@H]3CCCNC3)c12` [Example 514, (R)-3-(6-hydroxyhex-1-yn-1-yl)-N-(8-methylisoquinolin-1-yl)-N-(piperidin-3-yl)benzamide], the negative-log IC50 (pIC50) is 6.05.

Turning to `Cc1cc(Cl)cc2ccnc(N(C(=O)c3ccc(-c4cn(C)nn4)cc3F)[C@@H]3CCCNC3)c12` [Example 444, N-(6-chloro-8-methyl-1-isoquinolyl)-2-fluoro-4-(1-methyltriazol-4-yl)-N-[(3R)-3-piperidyl] benzamide], the negative logarithm of the IC50 (pIC50) was 8.16.

Consider `Cc1cccc2ccnc(N(C(=O)c3ccc(Nc4nccc(NCC#N)n4)cc3F)[C@@H]3CCCNC3)c12` [Example 950, (R)-4-((4-((cyanomethyl)amino)pyrimidin-2-yl)amino)-2-fluoro-N-(8-methylisoquinolin-1-yl)-N-(piperidin-3-yl)benzamide], for which the negative-log IC50 (pIC50) was 7.29.
